The test system of this experiment is MEK. Put plainly: Cellular Assay for Measuring MEK Inhibition (inhibition of ERK phosphorylation in C26 cells, Western blot). It counts as cell-based, murine. The following applies: for % Inhibition @ 0.1 μM / % Inhibition @ 1 μM / % Inhibition @ 10 μM: ERK phosphorylation in C26 cells; for IC50: inhibition of ERK phosphorylation in murine colon 26 (C26) carcinoma cells, determined graphically from dose response curve. The protocol: The evaluation of the compounds as MEK inhibitors was performed in an assay that measures their ability to inhibit phosphorylation of MAP kinase […]) in murine colon 26 (C26) carcinoma cells. Since ERK1 and ERK2 represent the only known substrates for MEK, measurement of inhibition of ERK phosphorylation in cells provides direct readout of cellular MEK inhibition by the compounds of the invention. Briefly, the assay involves treating exponentially growing C26 cells with varying concentrations of the test compound (or vehicle control) for […] at 37° C. Cells are then rinsed free of compound/vehicle and lysed in a solution containing 70 mM NaCl, 50 mM glycerol phosphate, 10 mM HEPES, pH 7.4, 1% Triton X-100, 1 mM Na3VO4, 100 μM PMSF, 10 μM leupeptin and 10 μM pepstatin. Supernatants are then subjected to gel electrophoresis and Western blotting using a primary antibody recognizing dually phosphorylated ERK1 and ERK2. To evaluate total MAPK levels, blots were subsequently ‘stripped’ and re-probed with a 1:1 mixture of polyclonal antibodies recognizing unphosphorylated ERK1 and ERK2.

The structures appear in SMILES notation.

Here are results for 32 molecules from patent publication US6960614B2, “Oxygenated esters of 4-lodo phenylamino benzhydroxamic acids” (Warner-Lambert Company, priority 2000, dated 2005).

On to `CCC(O)CONC(=O)c1ccc(F)c(F)c1Nc1ccc(I)cc1F` (centres unmarked) [Example 112, 3,4-Difluoro-2-(2-fluoro-4-iodo-phenylamino)-N-(2-hydroxy-butoxy)-benzamide], for which the “% Inhibition @ 0.1 μM” value is 95.2% and the “% Inhibition @ 1 μM” value was found to be 95.5%.
In the same order, the values of `CCC(O)CONC(=O)c1cc(Br)c(F)c(F)c1Nc1ccc(I)cc1F` (centres unmarked) [Example 113, 5-Bromo-3,4-difluoro-2-(2-fluoro-4-iodo-phenylamino)-N-(2-hydroxy-butoxy)-benzamide] are 89.9% and 94.6%.
For the molecule `CCC(O)CONC(=O)c1cc(Cl)c(F)c(F)c1Nc1ccc(I)cc1F` (centres unmarked) [Example 114, 5-Chloro-3,4-difluoro-2-(2-fluoro-4-iodo-phenylamino)-N-(2-hydroxy-butoxy)-benzamide], the “% Inhibition @ 0.1 μM” value is reported as 90.5% and the “% Inhibition @ 1 μM” value is 97.3%.
In the same order, the values of `CCC(O)CONC(=O)c1cc(F)c(F)cc1Nc1ccc(I)cc1F` (centres unmarked) [Example 115, 4,5-Difluoro-2-(2-fluoro-4-iodo-phenylamino)-N-(2-hydroxy-butoxy)-benzamide] are 94.8% and 98.5%.
In the case of `CCC(O)CONC(=O)c1cc(Cl)c(F)c(F)c1Nc1ccc(F)cc1F` (centres unmarked) [Example 116, 5-Chloro-2-(2,4-difluoro-phenylamino)-3,4-difluoro-N-(2-hydroxy-butoxy)-benzamide], the “% Inhibition @ 1 μM” value was 62.8% and the “% Inhibition @ 10 μM” value worked out at 75.8%.
Turning to `CCC(O)CONC(=O)c1ccc(F)c(F)c1Nc1ccc(F)cc1F` (centres unmarked) [Example 117, 2-(2,4-Difluoro-phenylamino)-3,4-difluoro-N-(2-hydroxy-butoxy)-benzamide], the “% Inhibition @ 0.1 μM” value is given as 0%, the “% Inhibition @ 1 μM” value turned out to be 66.7% and the “% Inhibition @ 10 μM” value stood at 86.9%.
Turning to `CCC(O)CONC(=O)c1ccc(F)c(F)c1Nc1ccc(Br)cc1F` (centres unmarked) [Example 118, 2-(4-Bromo-2-fluoro-phenylamino)-3,4-difluoro-N-(2-hydroxy-butoxy)-benzamide], the “% Inhibition @ 0.1 μM” value is recorded as 74.6% and the “% Inhibition @ 1 μM” value was 95.6%.
In the same order, the values of `Cc1cc(I)ccc1Nc1c(C(=O)NOC(C)CO)cc(Cl)c(F)c1F` (centres unmarked) [Example 119, 5-Chloro-3,4-difluoro-N-(2-hydroxy-1-methyl-ethoxy)-2-(4-iodo-2-methyl-phenylamino)-benzamide] are 87.4% and 97.9%.
In turn, `CC(CO)ONC(=O)c1ccc(F)c(F)c1Nc1ccc(I)cc1Cl` (centres unmarked) [Example 120, 2-(2-Chloro-4-iodo-phenylamino)-3,4-difluoro-N-(2-hydroxy-1-methyl-ethoxy)-benzamide] registered an IC50 of 14 nM.
As for `CC(CO)ONC(=O)c1cc(F)c(F)c(F)c1Nc1ccc(I)cc1Cl` (centres unmarked) [Example 121, 2-(2-Chloro-4-iodo-phenylamino)-3,4,5-trifluoro-N-(2-hydroxy-1-methyl-ethoxy)-benzamide], the “% Inhibition @ 0.1 μM” value was found to be 46.9% and the “% Inhibition @ 1 μM” value was determined as 85.5%.
In the same order, the values of `Cc1cc(I)ccc1Nc1c(C(=O)NOC(C)CO)cc(F)c(F)c1F` (centres unmarked) [Example 122, 3,4,5-Trifluoro-N-(2-hydroxy-1-methyl-ethoxy)-2-(4-iodo-2-methyl-phenylamino)-benzamide] are 49.6% and 87.3%.
`CC(CO)ONC(=O)c1cc(Br)c(F)c(F)c1Nc1ccc(I)cc1Cl` (centres unmarked) [Example 123, 5-Bromo-2-(2-chloro-4-iodo-phenylamino)-3,4-difluoro-N-(2-hydroxy-1-methyl-ethoxy)-benzamide] had an IC50 of 21 nM.
Take `Cc1cc(I)ccc1Nc1c(C(=O)NOC(C)CO)cc(Br)c(F)c1F` (centres unmarked) [Example 124, 5-Bromo-3,4-difluoro-N-(2-hydroxy-1-methyl-ethoxy)-2-(4-iodo-2-methyl-phenylamino)-benzamide]: the “% Inhibition @ 0.1 μM” value stood at 78% and the “% Inhibition @ 1 μM” value worked out at 96.9%.
In the same order, the values of `CC(CO)ONC(=O)c1ccc(F)c(F)c1Nc1ccc(Cl)cc1F` (centres unmarked) [Example 125, 2-(4-Chloro-2-fluoro-phenylamino)-3,4-difluoro-N-(2-hydroxy-1-methyl-ethoxy)-benzamide] are 9.1% and 89%.
`Cc1cc(I)ccc1Nc1c(C(=O)NOC(C)CO)ccc(F)c1F` (centres unmarked) [Example 126, 3,4-Difluoro-N-(2-hydroxy-1-methyl-ethoxy)-2-(4-iodo-2-methyl-phenylamino)-benzamide] displayed an IC50 of 26 nM.
Take `CC(CO)ONC(=O)c1cc(Cl)c(F)c(F)c1Nc1ccc(I)cc1Cl` (centres unmarked) [Example 127, 5-Chloro-2-(2-chloro-4-iodo-phenylamino)-3,4-difluoro-N-(2-hydroxy-1-methyl-ethoxy)-benzamide]: half-maximal inhibition (IC50) required 25 nM.
In turn, `CC(CO)ONC(=O)c1ccc(F)c(F)c1Nc1ccc(I)cc1F` (centres unmarked) [Example 128, 3,4-Difluoro-2-(2-fluoro-4-iodo-phenylamino)-N-(2-hydroxy-1-methyl-ethoxy)-benzamide] returned an IC50 of 9 nM.
Take `CC(CO)ONC(=O)c1cc(Br)c(F)c(F)c1Nc1ccc(I)cc1F` (centres unmarked) [Example 129, 5-Bromo-3,4-difluoro-2-(2-fluoro-4-iodo-phenylamino)-N-(2-hydroxy-1-methyl-ethoxy)-benzamide]: the “% Inhibition @ 0.1 μM” value is reported as 100% and the “% Inhibition @ 1 μM” value was determined as 100%.
Molecule `CC(CO)ONC(=O)c1cc(Cl)c(F)c(F)c1Nc1ccc(I)cc1F` (centres unmarked) [Example 130, 5-Chloro-3,4-difluoro-2-(2-fluoro-4-iodo-phenylamino)-N-(2-hydroxy-1-methyl-ethoxy)-benzamide] yielded an IC50 of 4 nM.
As for `CC(CO)ONC(=O)c1cc(F)c(F)cc1Nc1ccc(I)cc1F` (centres unmarked) [Example 131, 4,5-Difluoro-2-(2-fluoro-4-iodo-phenylamino)-N-(2-hydroxy-1-methyl-ethoxy)-benzamide], the “% Inhibition @ 0.1 μM” value is listed as 78.7% and the “% Inhibition @ 1 μM” value turned out to be 91.3%.
On to `CC(CO)ONC(=O)c1cc(Cl)c(F)c(F)c1Nc1ccc(F)cc1F` (centres unmarked) [Example 132, 5-Chloro-2-(2,4-difluoro-phenylamino)-3,4-difluoro-N-(2-hydroxy-1-methyl-ethoxy)-benzamide], for which the “% Inhibition @ 1 μM” value is 45.7% and the “% Inhibition @ 10 μM” value was 80.6%.
`CC(CO)ONC(=O)c1ccc(F)c(F)c1Nc1ccc(F)cc1F` (centres unmarked) [Example 133, 2-(2,4-Difluoro-phenylamino)-3,4-difluoro-N-(2-hydroxy-1-methyl-ethoxy)-benzamide]: the “% Inhibition @ 0.1 μM” value is listed as 0% and the “% Inhibition @ 1 μM” value came to 26.4%.
`COCCONC(=O)c1ccc(F)c(F)c1Nc1ccc(I)cc1Cl` [Example 134, 2-(2-Chloro-4-iodo-phenylamino)-3,4-difluoro-N-(2-methoxy-ethoxy)-benzamide] returned an IC50 of 370 nM.
Turning to `COCCONC(=O)c1cc(F)c(F)c(F)c1Nc1ccc(I)cc1Cl` [Example 135, 2-(2-Chloro-4-iodo-phenylamino)-3,4,5-trifluoro-N-(2-methoxy-ethoxy)-benzamide], the “% Inhibition @ 0.1 μM” value came to 0% and the “% Inhibition @ 1 μM” value is 41.4%.
The molecule `COCCONC(=O)c1ccc(F)c(F)c1Nc1ccc(I)cc1C` [Example 136, 3,4-Difluoro-2-(4-iodo-2-methyl-phenylamino)-N-(2-methoxy-ethoxy)-benzamide] had an IC50 of 250 nM.
The same measure, in the same setting: the same measure for `COCCONC(=O)c1cc(Br)c(F)c(F)c1Nc1ccc(I)cc1C` [Example 137, 5-Bromo-3,4-difluoro-2-(4-iodo-2-methyl-phenylamino)-N-(2-methoxy-ethoxy)-benzamide]: 100 nM.
For the molecule `COCCONC(=O)c1cc(F)c(F)c(F)c1Nc1ccc(I)cc1C` [Example 138, 3,4,5-Trifluoro-2-(4-iodo-2-methyl-phenylamino)-N-(2-methoxy-ethoxy)-benzamide], the “% Inhibition @ 0.1 μM” value is reported as 0% and the “% Inhibition @ 1 μM” value was 19.6%.
With `COCCONC(=O)c1cc(Br)c(F)c(F)c1Nc1ccc(I)cc1Cl` [Example 139, 5-Bromo-2-(2-chloro-4-iodo-phenylamino)-3,4-difluoro-N-(2-methoxy-ethoxy)-benzamide], the half-inhibitory concentration (IC50) is 360 nM.
On the same count and under the same terms, the same measure for `COCCONC(=O)c1cc(Cl)c(F)c(F)c1Nc1ccc(I)cc1Cl` [Example 140, 5-Chloro-2-(2-chloro-4-iodo-phenylamino)-3,4-difluoro-N-(2-methoxy-ethoxy)-benzamide]: 450 nM.
`COCCONC(=O)c1cc(Cl)c(F)c(F)c1Nc1ccc(I)cc1C` [Example 141, 5-Chloro-3,4-difluoro-2-(4-iodo-2-methyl-phenylamino)-N-(2-methoxy-ethoxy)-benzamide]: the “% Inhibition @ 0.1 μM” value was determined as 38% and the “% Inhibition @ 1 μM” value was determined as 92.7%.
For `COCCONC(=O)c1cc(Cl)c(F)c(F)c1Nc1ccc(I)cc1F` [Example 142, 5-Chloro-3,4-difluoro-2-(2-fluoro-4-iodo-phenylamino)-N-(2-methoxy-ethoxy)-benzamide], the “% Inhibition @ 0.1 μM” value came out at 31% and the “% Inhibition @ 1 μM” value is listed as 91.4%.
`O=C(NOCC(O)CN1CCOCC1)c1ccc(F)c(F)c1Nc1ccc(I)cc1Cl` (centres unmarked) [Example 143, 2-(2-Chloro-4-iodo-phenylamino)-3,4-difluoro-N-(2-hydroxy-3-morpholin-4-yl-propoxy)-benzamide]: the IC50 came out at 600 nM.
